Measured values reported in patent US12491271B2, “Positron emission tomography radiotracer for diseases associated with translocator protein overexpression, translocator protein-targeting ligand for fluorescence imaging-guided surgery and photodynamic therapy, and production methods therefor” (Seoul National University R&DB Foundation, priority 2018, dated 2025).

Tests used:
TSPO = TSPO (Homo sapiens, UniProt P30536); settings: compared with earlier tracer [11C]PK11195, background art; cited from earlier work
TSPO, sequence (P30536 whole entry): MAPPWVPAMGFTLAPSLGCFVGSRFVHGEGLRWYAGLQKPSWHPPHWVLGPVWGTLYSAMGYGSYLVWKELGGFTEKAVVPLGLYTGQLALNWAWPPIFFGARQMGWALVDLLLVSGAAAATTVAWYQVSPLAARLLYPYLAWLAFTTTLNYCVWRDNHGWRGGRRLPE

[1] = Measurement of lipophilicity (n-octanol / sodium phosphate buffer partition); type: physicochemical; settings: n-octanol / sodium phosphate buffer 0.15 M, pH 7.4; measured five times; read-out: lipophilicity (ratio of counts per minute from n-octanol versus sodium phosphate buffer) (converted)
Method: For the measurement of lipophilicity, [^18F]BS224 dispersed in 5% ethanol/saline was added to and mixed with n-octanol (5 mL) and sodium phosphate buffer (0.15 M, pH 7.4, 5.0 mL), and then lipophilicity was measured five times. Samples of each phase were counted for radioactivity, and the lipophilicity was expressed as the ratio of the counts per minute from n-octanol versus that of the sodium phosphate buffer. The lipophilicity of [^18F]BS224 was 2.78±0.4.

[2] = In vitro stability in human serum; type: in vitro ADME; settings: human serum mixed with 1% ethanol/water, 37° C., for up to 120 minutes
Method: In an experiment on the in vitro stability of the fluorine-18-labeled PET radiotracer ([^18F]BS224) for targeting translocator protein overexpression, 0.4 mL of human serum was mixed with 0.4 mL of 1% ethanol/water containing the fluorine-18-labeled radiotracer ([^18F]BS224), and then the solution was incubated at 37° C. for 0, 10, 30, 60 and 120 minutes and then analyzed by thin film chromatography.

Row | Compound | higher uptake (TSPO) [fold] | logD [1] | stability of radiotracer in human serum (thin film chromatography) [2]
1 | COc1ccc(OC)c(CN(C(C)=O)c2cc(F)ccc2Oc2ccccc2)c1 [[^11C]DAA1106] | 4 |  | 
2 | CCCN(CCC)C(=O)Cc1c(-c2ccc([18F])cc2)nc2c(Cl)cc(Cl)cn12 [[^18F]BS224, 2-(6,8-dichloro-2-(4-[^18F]fluorophenyl)imidazo[1,2-a]pyridin-3-yl)-N, N-dipropylacetamide] |  | 0.444 | at least 98.7%
